We go through 16 compounds from patent US7432275B2, “Carboxylic acid, phosphate or phosphonate substituted quinazolin-4-ylamine analogues as capsaicin receptor modulators” (Neurogen Corporation, priority 2002, dated 2008).

Broadly, the Ki is a dissociation constant, usually derived from enzyme kinetics or from competition with a known ligand.

T1 sequence (Q8NER1 whole entry): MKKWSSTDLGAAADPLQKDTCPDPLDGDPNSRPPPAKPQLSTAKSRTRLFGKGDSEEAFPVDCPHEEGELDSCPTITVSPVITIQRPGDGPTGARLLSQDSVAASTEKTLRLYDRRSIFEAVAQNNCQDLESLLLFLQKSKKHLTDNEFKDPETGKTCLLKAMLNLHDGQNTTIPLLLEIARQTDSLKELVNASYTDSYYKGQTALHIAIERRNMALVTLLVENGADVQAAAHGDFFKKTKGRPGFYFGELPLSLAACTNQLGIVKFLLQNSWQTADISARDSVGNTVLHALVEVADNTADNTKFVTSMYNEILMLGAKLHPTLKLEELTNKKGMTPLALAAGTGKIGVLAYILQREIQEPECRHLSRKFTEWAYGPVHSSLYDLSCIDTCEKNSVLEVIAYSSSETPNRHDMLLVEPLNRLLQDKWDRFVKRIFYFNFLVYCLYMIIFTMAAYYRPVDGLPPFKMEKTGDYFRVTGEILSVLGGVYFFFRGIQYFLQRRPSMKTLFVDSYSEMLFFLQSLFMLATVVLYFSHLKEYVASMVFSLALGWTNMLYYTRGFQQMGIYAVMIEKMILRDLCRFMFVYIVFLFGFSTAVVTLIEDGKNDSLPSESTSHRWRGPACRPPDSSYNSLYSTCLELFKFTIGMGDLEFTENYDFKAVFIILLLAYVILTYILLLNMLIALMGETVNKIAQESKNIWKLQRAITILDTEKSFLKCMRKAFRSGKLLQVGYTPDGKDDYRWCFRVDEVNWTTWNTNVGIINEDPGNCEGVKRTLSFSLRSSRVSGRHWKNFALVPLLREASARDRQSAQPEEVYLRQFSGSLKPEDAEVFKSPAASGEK

In one assay the target is T1, human capsaicin receptor (Homo sapiens, UniProt Q8NER1). As to the kind of experiment: Calcium mobilization assay. Conditions: capsaicin used as positive control; read-out: approximate EC90 concentration. Format: cell-based. Here is the method:
Cells transfected with expression plasmids (as described in Example 4) and thereby expressing human capsaicin receptor are seeded and grown to 70-90% confluency in FALCON black-walled, clear-bottomed 96-well plates (#3904, BECTON-DICKINSON, Franklin Lakes, N.J.). […] After the incubation, the dye is emptied from the plates, and the cells are washed once with KRH buffer, and resuspended in KRH buffer.
To measure the ability of a test compound to agonize or antagonize a calcium mobilization response in cells expressing capsaicin receptors to capsaicin or other vanilloid agonist, the EC50 of the agonist capsaicin is first determined. An additional 20 μl of KRH buffer and 1 μl DMSO is added to each well of cells, prepared as described above. 100 μl capsaicin in KRH buffer is automatically transferred by the FLIPR instrument to each well. Capsaicin-induced calcium mobilization is monitored using either FLUOROSKAN ASCENT (Labsystems; Franklin, Mass.) or FLIPR (fluorometric imaging plate reader system; Molecular Devices, Sunnyvale, Calif.) instruments. […] In this equation, y is the maximum fluorescence signal, x is the concentration of the agonist or antagonist (in this case, capsaicin), a is the Emax, b corresponds to the EC50 value and c is the Hill coefficient. […]
On the technique in general: Calcium assays in cells follow changes in intracellular calcium, usually with a dye or a luminescent sensor.
In the case of `COc1cc(CNC(=O)CCCC/C=C/C(C)C)ccc1O` [capsaicin], the EC90 is around 0.1 µM.

Another assay concerns the target T1, human capsaicin receptor. Kind of assay: Capsaicin receptor binding assay ([3H]RTX competition, membranes of VR1-transfected HEK293 cells).
Conditions: not given
The source says: This Example illustrates the preparation of VR1-transfected cells and membrane preparations for use in binding assays (Example 5) and functional assays (Example 6).
This Example illustrates a representative assay of capsaicin receptor binding that may be used to determine the binding affinity of compounds for the capsaicin (VR1) receptor.
Binding studies with [^3H] […] 262:883-888.
For `CCOP(=O)(Cc1nc(Nc2ccc(C(F)(F)F)cc2)c2ccc(-c3ncccc3C)cc2n1)OCC` [Compound 5, [7-(3-Methyl-pyridin-2-yl)-4-(4-trifluoromethyl-phenylamino)-quinazolin-2-ylmethyl]-phosphonicacid diethyl ester], the Ki is below 1 µM.

In the case of `CCOP(=O)(Cc1nc(Nc2ccc(C(C)(C)C)cc2)c2ccc(-c3ncccc3C)cc2n1)OCC` [Compound 16, [4-(4-tert-Butyl-phenylamino)-7-(3-methyl-pyridin-2-yl)-quinazolin-2-ylmethyl]-phosphonic acid diethylester], the Ki was below 1 µM.

`CCOP(=O)(Cc1nc(Nc2ccc(C(C)(C)C)cc2)c2ccc(-c3ncccc3C(F)(F)F)cc2n1)OCC` [Compound 17, [4-(4-tert-Butyl-phenylamino)-7-(3-trifluoromethyl-pyridin-2-yl)-quinazolin-2-ylmethyl]-phosphonicacid diethyl ester] gave a Ki below 1 µM.

Turning to `CCOP(=O)(O)Cc1nc(Nc2ccc(C(C)(C)C)cc2)c2ccc(-c3ncccc3C(F)(F)F)cc2n1` [Compound 18, [4-(4-tert-Butyl-phenylamino)-7-(3-trifluoromethyl-pyridin-2-yl)-quinazolin-2-ylmethyl]-phosphonicacid monoethyl ester], the Ki is below 1 µM.

Still in this assay, the particulars now being: determined as described in Example 5; read-out: Ki.
Turning to `O=C(O)CNc1nc(Nc2ccc(C(F)(F)F)cc2)c2ccc(-c3ncccc3C(F)(F)F)cc2n1` [Compound 3, [4-(4-Trifluoromethyl-phenylamino)-7-(3-trifluoromethyl-pyridin-2-yl)-quinazolin-2-ylamino]-acetic acid], the Ki was below 1 µM.

In the case of `CC(C)(C)c1ccc(Nc2nc(COP(=O)(OCc3ccccc3)OCc3ccccc3)nc3cc(-c4ncccc4C(F)(F)F)ccc23)cc1` [Compound 6, Phosphoric acid dibenzyl ester 4-(4-tert-butyl-phenylamino)-7-(3-trifluoromethyl-pyridin-2-yl)-quinazolin-2-ylmethyl ester], the Ki was below 1 µM.

Turning to `CC(C)(C)c1ccc(Nc2nc(COP(=O)(O)O)nc3cc(-c4ncccc4C(F)(F)F)ccc23)cc1` [Compound 7, Phosphoric acid mono-[4-(4-tert-butyl-phenylamino)-7-(3-trifluoromethyl-pyridin-2-yl)-quinazolin-2-ylmethyl] ester], the inhibition constant Ki is below 1 µM.

On to `O=P(OCc1ccccc1)(OCc1ccccc1)OCc1nc(Nc2ccc(C(F)(F)F)cc2)c2ccc(-c3ncccc3C(F)(F)F)cc2n1` [Compound 8, Phosphoric acid dibenzyl ester 4-(4-trifluoromethyl-phenylamino)-7-(3-trifluoromethyl-pyridin-2-yl)-quinazolin-2-ylmethyl ester], for which the Ki is below 1 µM.

For the compound `CC(C)(C)c1ccc(Nc2ncnc3cc(-c4ncccc4C(F)(F)F)cnc23)cc1OCC(=O)O` [Compound 13, {2-tert-Butyl-5-[7-(3-trifluoromethyl-pyridin-2-yl)-pyrido[3,2-d]pyrimidin-4-ylamino]-phenoxy}-acetic acid], the Ki was below 1 µM.

For the compound `Cc1nc(Nc2ccc(C(C)(C)C(=O)O)cc2)c2ccc(-c3ncccc3C)nc2n1` [Compound 19, 2-Methyl-2-{4-[2-methyl-7-(3-methyl-pyridin-2-yl)-pyrido[2,3-d]pyrimidin-4-ylamino]-phenyl}-propionic acid], the Ki is below 1 µM.

Consider `CC(C)(C)c1ccc(Nc2ncnc3cc(-c4ncccc4C(F)(F)F)ccc23)cc1OCCN1CCC[C@H]1C(=O)O` [Compound 22, (S)-1-(2-{2-tert-Butyl-5-[7-(3-trifluoromethyl-pyridin-2-yl)-quinazolin-4-ylamino]-phenoxy}-ethyl)-pyrrolidine-2-carboxylic acid], for which the Ki was below 1 µM.

Turning to `CC(C)(C)c1ccc(Nc2ncnc3cc(-c4ncccc4C(F)(F)F)ccc23)cc1OCCOP(=O)(O)O` [Compound 31, Phosphoric acid mono-(2-{2-tert-butyl-5-[7-(3-trifluoromethyl-pyridin-2-yl)-quinazolin-4-ylamino]-phenoxy}-ethyl) ester], the Ki was below 1 µM.

Regarding `CC(C)(C)c1ccc(Nc2nc(CP(=O)(O)O)nc3cc(-c4ncccc4C(F)(F)F)ccc23)cc1` [Compound 32, [4-(4-tert-Butyl-phenylamino)-7-(3-trifluoromethyl-pyridin-2-yl)-quinazolin-2-ylmethyl]-phosphonicacid], the Ki is below 1 µM.

With `CC(C)(C)c1ccc(Nc2nc(N3CCC(C(=O)O)CC3)nc3nc(-c4ncccc4C(F)(F)F)ccc23)cc1` [Compound 44, 1-[4-(4-tert-Butyl-phenylamino)-7-(3-trifluoromethyl-pyridin-2-yl)-pyrido[2,3-d]pyrimidin-2-yl]-piperidine-4-carboxylic acid], the Ki is below 1 µM.

On to `COCc1nc2nc(-c3ncccc3C(F)(F)F)ccc2c(Nc2ccc(C(F)(F)F)cc2)c1C(=O)O` [Compound 45, 2-Methoxymethyl-4-(4-trifluoromethyl-phenylamino)-7-(3-trifluoromethyl-pyridin-2-yl)-[1,8]naphthyridine-3-carboxylic acid], for which the Ki was below 1 µM.
